Legend:
[1] = system: otud4 endogenous transcript; assay: efficiency of the morpholinos (splicing of endogenous transcript, gel); type: in vivo, zebrafish; conditions: otud4 MO 4-10 ng; intron 5 retained
Experimental: FIG. 8B depicts a gel of the results of injection of the otud4 MO (4-10 ng), which reduces normal splicing of the endogenous transcript by 90% and favors aberrant splicing resulting in a transcript where intron 5 (73 bp in size) is retained.
(§1) Similar to rnf216, a sole ortholog of the human transcript for OTUD4 was identified in zebrafish (73% similarity, 61% identity). […] The MO for otud4 targeted the donor splice site of intron 2: […] (SEQ ID NO: 8).

[2] = system: zebrafish embryos; assay: zebrafish embryo morpholino knock-down and human mRNA rescue phenotyping; type: in vivo; conditions: for organization of the cerebellum (axonal tracts) / size of the optic tectum: 3 d.p.f., anti-α acetylated tubulin staining
Experimental: Zebrafish Investigation. All experiments were carried out with the approval of the Institutional Animal Care and Use Committee. Morpholino oligos (MO) for silencing of zebrafish rnf216 and otud4 were injected either alone or with wild-type (WT) or mutant human mRNA for RNF216, OTUD4, or both.
Morpholino oligonucleotide design. Morpholino oligos were obtained from Gene Tools, LLC (Philomath, Oreg., USA). Reciprocal BLAST against the zebrafish genome identified a sole zebrafish ortholog of […] (ENSDARG00000087893, 59% similarity, 46% identity). The antisense MO used for the silencing of zebrafish rnf216 targeted the intron 5′ donor splice site of the gene: […] (SEQ ID NO: 7).
as §1
Zebrafish embryo injections. Zebrafish were maintained and mated according to standard procedures.^49 Wild-type zebrafish embryos were injected at the 1-4 cell stage with 1 nl diluted MO and 0.5% phenol red. A dose of 6 ng of rnf216 or otud4-targeting MO was used as it gave the best rate of silencing and the minimum rate of mortality among the tested working dilutions (4-10 ng). For the epistatic interaction experiments, a cocktail containing 6 ng each of rnf216- and otud4-targeting MO was used.
For RNA rescue experiments, human wild-type or mutant RNF216 (NM_207116.2) and OTUD4 (NM_001102653.1) were cloned into the pCS2+ expression vector and transcribed in vitro using the SP6 Message Machine Kit (Ambion) to produce capped mRNA, and 200 pg of mRNA was injected for the rescue experiments.
(§2) Zebrafish embryo phenotyping. Injected embryos were scored at 3 days post fertilization for microphthalmia by measuring the area of the eye cup. For immunofluorescence studies, embryos were fixed in Dent's fixative (80% methanol, 20% dimethylsulfoxide) overnight at 4° C. After rehydration with decreasing series of methanol in PBS, the embryos were washed with PBS, permeabilized with 10 μg/ml proteinase K, and postfixed with 4% PFA. Embryos were then washed twice with IF buffer (0.1% Tween-20, 1% BSA in 1×PBS) for 10 min at room temperature. After incubation in blocking solution (10% FBS, 1% BSA in 1×PBS) for 1 h at room temperature, embryos were incubated with anti-α acetylated tubulin (1:1000; T7451, Sigma-Aldrich), overnight at 4° C. After two washes in IF buffer for 10 min, embryos were incubated with Alexa Fluor goat anti-mouse IgG (1:1000; A21207, A11001, Invitrogen) for 1 h at room temperature. Image acquisition and analysis was performed using Nikon NIS-Elements Advanced Research software. For each test, 50-100 embryos were injected and scored by two investigators who were blind to the injection cocktail. All experiments were performed 2-3 times and statistical significance was calculated using Student's t-test.

[3] = system: rnf216 and rnf216+otud4 (DMO) morphants; assay: in vivo zebrafish assay of neuronal survival and degeneration, SFN co-injected into morphants; conditions: for morphants with optic tectum defects: 3 dpf
Experimental: Zebrafish embryo injections. Zebrafish were maintained and mated according to standard procedures.^49 Wild-type zebrafish embryos were injected at the 1-4 cell stage with 1 nl diluted MO and 0.5% phenol red. […] For the epistatic interaction experiments, a cocktail containing 6 ng each of rnf216- and otud4-targeting MO was used.
as §2
This hypothesis will be tested in Rnf216^−/− and Otud4^−/− mice.

[4] = system: pituitary response to GnRH; assay: reproductive endocrine phenotyping with exogenous GnRH; type: in vivo, human
Experimental: Reproductive Endocrine Phenotyping. Subjects 2, 6, and 8 underwent blood sampling every 10-15 minutes for 3.25-12 h to examine the frequency, amplitude, and morphology of endogenous GnRH-induced luteinizing hormone (LH) pulse patterns. Pulses of LH secretion were identified using a modified version of the method of Santen and Bardin.^45-46 Subjects 1, 2, 6, and 8 received exogenous, pulsatile GnRH with monitoring of gonadotropin responses as described previously.^47-48 Hormone assays were performed as described in ref 48; the Second International Reference Preparation was used as the standard for LH and FSH.

[5] = system: pituitary response to GnRH; conditions: Subject 3, cited from earlier work
[6] = treatment of rnf216 and DMO morphants with SFN

Q: With “otud4 MO: splice-blocking morpholino against zebrafish otud4: TACCCGAAGGAATTTGCGCACCATT (SEQ ID NO: 8) (all phosphorodiamidate morpholino (PMO))” as the molecule, how does the “reduction of normal splicing of the endogenous transcript” value [1] read?
A: 90%

Q: And the “organization of the cerebellum (axonal tracts)” value [2]?
A: cerebellar defects

Q: What about the “size of the optic tectum” value [2] of the same molecule?
A: reduction in size of the optic tectum

Q: Which results are given for “human RNF216 mRNA: capped wild-type human RNF216 (NM—207116.2) mRNA transcribed in vitro, 200 pg injected”?
A: rescue of the phenotypes induced by double MO injection ([2]; co-injection of mRNA with double MO): rescued all phenotypes; rescue of the tectal phenotype ([2]; co-injection of mRNA with rnf216 MO): fully rescued

Q: For “rnf216 MO: antisense morpholino silencing zebrafish rnf216, donor splice site: CAGAAAATAGTTTGTGCTTACACAT (SEQ ID NO: 7) (all phosphorodiamidate morpholino (PMO))”, which “morphants with optic tectum defects” value ([3]; morphants without SFN) is on record?
A: 32%

Q: And the “organization of the cerebellum (axonal tracts)” value [2]?
A: disorganization of axonal tracts in the cerebellum

Q: And the “size of the optic tectum” value [2]?
A: reduction in size of the optic tectum

Q: Which “LH response to exogenous GnRH at a standard dose” value ([4]; Subject 6) does the source give for “gonadotropin-releasing hormone (QHWSYGLRPG; Gonadoliberin-1; UniProt P01148 24-33, looked up) [GnRH]” here?
A: immediate robust increase in LH

Q: And the testicular volumes ([4]; Subject 8, exogenous pulsatile GnRH 25 to 600 ng/kg q2 h over 2 y, from 2 mL)?
A: 8 mL

Q: What about the “gonadotropin responses to pulsatile exogenous GnRH over 7 days” value ([4]; Subjects 1 and 2, bedridden, late in the course of disease) of the same molecule?
A: failed to exhibit gonadotropin responses

Q: What about the “LH after GnRH” value ([5]; 90 min after GnRH, baseline 0.06 IU/L) of the same molecule?
A: 5.8 IU/L

Q: What about the “FSH after GnRH” value ([5]; 120 min, baseline 0.14 IU/L) of the same molecule?
A: 2.0 IU/L

Q: For C[S@@+]([O-])CCCCN=C=S [SFN, 1-isothio-cyanato-4(R)-methylsulfinylbutane], which “morphants with optic tectum defects” value ([3]; DMO (rnf216+otud4) morphants co-injected with SFN, from 41% without SFN, p<0.001) is on record?
A: 15%

Q: And the cerebellar disorganization phenotype ([3]; co-injection of SFN with DMO)?
A: failed to ameliorate

Q: And the cerebellar disorganization phenotype ([3]; co-injection of SFN with rnf216 MO)?
A: failed to ameliorate

Q: And the “morphants with optic tectum defects” value ([3]; rnf216 morphants co-injected with SFN, from 32% without SFN, p<0.001)?
A: 15%

Q: What about the “cerebellar degeneration phenotype (FIG. 10E)” value [3, 6] of the same molecule?
A: not the cerebellar degeneration phenotype

Q: And the “optic tectum phenotype (FIG. 10D)” value [3, 6]?
A: rescues the optic tectum phenotype
